# Source: patent US20230277669A1, “USES OF UROLITHINS” (Amazentis SA, priority 2022, published 2023)
# Tests used:
# [1] = tested on: CEA-expressing human CRC organoids; test: Killing of CEA-expressing CRC organoids by CEA-specific CAR T cells; assay type: cell-based; settings: 72 h co-culture
# [2] = tested on: Th1/Th17 cell infiltration; settings: in vivo; cited from earlier work
# [3] = tested on: AOM-induced colon tumors; test: AOM-induced tumorigenesis with UA-containing diets; assay type: in vivo, FVB mice
# Excerpt: Oral UA confers anti-tumor effects in murine colorectal cancer in a T-cell dependent manner. (FIG. 1A) Schematic representation of AOM model and different UA containing diets. (FIG. 1B) Representative images of swiss-roll sections from AOM-induced colon tumors. Scale bars are 2 mm (upper row) and 300 µm (lower row), respectively. (FIG. 1C) Tumor incidence of AOM-induced tumors receiving different UA-containing diets; n=4/5/5. Data are mean ±SD, depicting one of two independent experiments. *p < 0.05 by two-sided t-test. (FIG. 1D) Average lesion size of AOM-induced tumors receiving different UA-containing diets; n=4/5/5. Data are mean ±SD, depicting one of two independent experiments. *p < 0.05 by two-sided t-test. (FIG. 1E) Relative number of CD45^+CD3^+ T cells in colons of AOM-treated mice at week 24 (n>7, pooled from two independent experiments). Data are mean ± SD, **p < 0.01 by two-sided t-test. (FIG. 1F) Organoid treatment scheme. APTK-organoids were incubated in the presence of UA or DMSO for the indicated time points, prior to flow cytometric analysis. (FIG. 1G) Quantification of lysosome formation as assessed by lysotracker MFI via flow cytometry after 24 h incubation at the presence of various UA concentrations (n=5/4/4). Depicts one out of two indepdent experiments. Data are mean ± SD, *p < 0.05; **p < 0.01 as established via two-sided t-test. (FIG. 1H) Mitotracker signal of APTK organoids incubated for 24 h at the presence of UA in vitro (n=4/4/4) and antigen presentation via MHC-I molecules (I) after 48 h of treatment (n=4/4/4). Results from one out of two independent experiments are shown. Data are mean ± SD, statistical analysis was performed via two-sided t-test, *p < 0.05; **p < 0.01, ****p < 0.0001. (FIG. 1I) Upregulation of MHC-I by UA. (FIG. 1J) Experimental setup of oral UA administration in mice with established APTK-s.c. tumors. Treatment diet was initiated eleven days after tumor injection and maintained until the end of the experiment. (FIG. 1K) Growth curve of mice subcutaneously transplanted with APTK tumors, receiving either UA-containing or control food (n=7 per group). Data are mean ± SD, ***p <0.001 by two-sided t-test. One out of two independent experiments are shown. (FIG. 1L) End point tumor weight, (FIG. 1M) CD8+ T cell infiltration in APTK-s.c. tumors assessed by flow cytometry, normalising total number of CD8^+ T cells to tumor weight (n=7 per group). Data are mean ± SD, statistical analysis was performed via Mann-Whitney test, *p < 0.05 and ***p <0.001. (FIG. 1N) Size of subcutaneous APTK tumors in Rag1^-/- mice receiving UA-containing or control food (n=7 per group). Treatment was initiated as depicted in FIG. 1J. Data are mean +-SD, depicting one out of two independent experiments. […]
# [4] = tested on: subcutaneous APTK tumors; test: Oral UA in Rag1-/- mice with s.c. APTK tumors; assay type: in vivo; settings: UA-containing vs control food; no mature T and B cells
# Excerpt: Oral UA confers anti-tumor effects in murine colorectal cancer in a T-cell dependent manner. (FIG. 1A) Schematic representation of AOM model and different UA containing diets. (FIG. 1B) Representative images of swiss-roll sections from AOM-induced colon tumors. Scale bars are 2 mm (upper row) and 300 µm (lower row), respectively. (FIG. 1C) Tumor incidence of AOM-induced tumors receiving different UA-containing diets; n=4/5/5. Data are mean ±SD, depicting one of two independent experiments. *p < 0.05 by two-sided t-test. (FIG. 1D) Average lesion size of AOM-induced tumors receiving different UA-containing diets; n=4/5/5. Data are mean ±SD, depicting one of two independent experiments. *p < 0.05 by two-sided t-test. (FIG. 1E) Relative number of CD45^+CD3^+ T cells in colons of AOM-treated mice at week 24 (n>7, pooled from two independent experiments). Data are mean ± SD, **p < 0.01 by two-sided t-test. (FIG. 1F) Organoid treatment scheme. […] (FIG. 1G) Quantification of lysosome formation as assessed by lysotracker MFI via flow cytometry after 24 h incubation at the presence of various UA concentrations (n=5/4/4). […] (FIG. 1L) End point tumor weight, (FIG. 1M) CD8+ T cell infiltration in APTK-s.c. tumors assessed by flow cytometry, normalising total number of CD8^+ T cells to tumor weight (n=7 per group). […]
# [5] = high-dose UA diet (2.28 g/kg), 18 weeks
smiles,measurement,setting,value
O=c1oc2cc(O)ccc2c2ccc(O)cc12 [Urolithin A],killing efficacy of CEA-expressing human CRC organoids,[1],comparable killing efficacy
same,Th1/Th17 cell infiltration,[2],blocking Th1/Th17 cell infiltration
same,tumor incidence,[3]; [5],significant decrease
same,tumor size,[3]; [5],significant decrease
same,infiltration of CD3+ T cells,"[3]; high-dose UA diet, colons at week 24",increased infiltration of CD3^+T cells
same,tumor load,"[3]; low-dose UA diet (0.57 g/kg), 18 weeks",did not have an effect on tumor load
same,"tumor size, protective effect of UA",[4],abrogated the protective effect of UA
